Data from PubChem BioAssay (NCI).
Where “and” joins values, the source holds several entries; their conditions need not be identical. Equal entries are not always repeated.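 Results reflect a 48-hour exposure of cells in 96-well plates to compound at five concentrations. At the GI50, growth is halved. The concentration for full growth arrest is given as TGI.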

How the values were obtained:
Test in all cases: growth of human tumour cells (NCI), 48 h
[1] = tested on: NCI-H23 lung
[2] = tested on: SK-MEL-28 melanoma
[3] = tested on: HCC-2998 colon
[4] = tested on: HCT-15 colon
[5] = tested on: ACHN renal
[6] = tested on: OVCAR-3 ovarian
[7] = tested on: SF-539 CNS
[8] = tested on: SK-MEL-5 melanoma
[9] = tested on: T-47D breast
[10] = tested on: MCF7 breast

Structure (SMILES) | GI50 [1] | TGI [1] | GI50 [2] | TGI [2] | GI50 [3] | TGI [3] | GI50 [4] | TGI [4] | GI50 [5] | TGI [5] | GI50 [6] | TGI [6] | GI50 [7] | TGI [7] | GI50 [8] | TGI [8] | GI50 [9] | TGI [9] | GI50 [10] | TGI [10] [µM]
Nc1nc2c(c3cnccc13)C(c1ccc(Cl)c(Cl)c1)Cc1cnccc1-2 (stereo not drawn) | 1.14 µM | 9.13 µM | 2.85 µM | 19 µM | 1.65 µM | 7.37 µM | 0.409 µM | 11.1 µM | 0.807 µM | 4.04 µM | 0.382 µM | 5.86 µM | 0.486 µM | 4.29 µM | 0.58 µM | 3.83 µM | 0.333 µM | 18.2 µM | 0.305 µM | 11.7
O=C1/C(=C/c2ccc(Cl)c(Cl)c2)CN(C(=O)CCN2CCC(=NO)CC2)C/C1=C\c1ccc(Cl)c(Cl)c1 | 1.04 µM | 3.01 µM | 1.64 µM | 3.07 µM | 0.807 µM | 2.11 µM | 0.325 µM | 1.16 µM | 0.641 µM | 1.62 µM | 0.574 µM | 1.64 µM | 0.753 µM | 1.97 µM | 1.58 µM | 3 µM | 1.1 µM | 3.59 µM | 0.333 µM | 1.74
Cc1nn(-c2ccc(Cl)cc2)c2ncnc(N/N=C/c3ccccc3O)c12 | 2.05 µM and 0.721 µM | > 55 µM | 1.56 µM and 0.494 µM | > 100 µM | 0.464 µM and 0.742 µM | > 100 µM | 0.407 µM and 0.331 µM | > 100 µM | 0.362 µM and 0.322 µM | 12 µM and 10.5 µM | 0.38 µM and 0.278 µM | 19.7 µM and 29.4 µM | 0.484 µM and 0.455 µM | 11.5 µM and 5.99 µM | 0.728 µM and 0.509 µM | 2.45 µM and 1.47 µM | 2.09 µM and 0.89 µM | > 100 µM and 23.5 µM | 0.887 µM and 0.399 µM | > 100
CCn1cc(C(=O)O)c(=O)c2cc(F)c(N3CCN(S(=O)(=O)c4cccc5ccccc45)CC3)cc21 | 3.13 µM | 12.1 µM | 6.09 µM | > 100 µM | 4.26 µM | 61.9 µM | 3.15 µM | > 100 µM | 2.88 µM | > 100 µM | 3.69 µM | 15.6 µM | 2.43 µM | 8.53 µM | 2.24 µM | 5.17 µM | 3.35 µM | > 100 µM | 2.72 µM | 9.04
CCN(C)c1nc(N(C)CC)c2nc(N(C)CC)nc(N(C)CC)c2n1 | – | > 100 µM | – | > 100 µM | – | > 100 µM | – | > 100 µM | – | > 100 µM | – | > 100 µM | – | > 100 µM | – | > 100 µM | – | > 100 µM | – | > 100
OC1(c2ccc(Cl)c(C(F)(F)F)c2)CCN(CCCC(c2ccc(F)cc2)c2ccc(F)cc2)CC1 | 0.83 µM | 1.62 µM | 0.889 µM | 1.58 µM | 0.762 µM | 1.43 µM | 0.888 µM | 1.75 µM | 0.87 µM | 1.63 µM | 0.888 µM | 1.63 µM | 0.943 µM | 1.69 µM | 0.797 µM | 1.47 µM | 0.941 µM | 1.84 µM | 0.796 µM | 1.47
COc1ccc2c(c1)c(-c1nc(-c3c[nH]c4ncccc34)cs1)cn2CCCN1CCOCC1 | 2.68 µM | 8.75 µM | 1.95 µM | 3.83 µM | 2.04 µM | 4.34 µM | 2.32 µM | 7.7 µM | 2.5 µM | 8.22 µM | 2.57 µM | 7.93 µM | 1.74 µM | 3.67 µM | 1.83 µM | 3.35 µM | 2.07 µM | 7.83 µM | 1.43 µM | 8.83
COC1N(C2CC(O)C(CO)O2)C(=O)NC(=O)C1(F)Br (stereo not drawn) | 13.3 µM | 50 µM and > 100 µM | 30 µM | 50 µM and > 100 µM | 1.14 µM | 50 µM and 98 µM | 26.3 µM | 50 µM and > 100 µM | 23.9 µM | 50 µM and > 100 µM | > 50 µM | > 100 µM | 6.8 µM | 50 µM | 38.2 µM | 50 µM and > 89.7 µM | – | > 100 µM | – | > 100
N#Cc1nc2c(S(=O)(=O)c3ccc(Cl)cc3)c(N)n(Nc3cccc(Cl)c3)c2nc1C#N | 0.0324 µM | – | 0.00349 µM | 0.011 µM | 0.0161 µM | > 100 µM | 0.0982 µM | > 100 µM | 0.0277 µM | – | – | 0.0132 µM | 0.0307 µM | 0.179 µM | 0.115 µM | 0.657 µM | 0.0258 µM | – | 0.015 µM | –
CCCCCOc1ccc(/C=N/Nc2cc(C)nc3ccc(Cl)cc23)cc1 | 1.78 µM | 3.47 µM | 1.69 µM | 3.09 µM | 1.95 µM | 3.54 µM | 1.43 µM | 2.84 µM | 1.75 µM | 3.13 µM | 1.97 µM | 3.58 µM | 1.86 µM | 3.3 µM | 1.63 µM | 3.01 µM | 1.76 µM | 3.71 µM | 1.64 µM | 3.4
CN[C@@H](C)C(=O)N[C@H]1CN(S(=O)(=O)c2cccc(S(=O)(=O)N3CC[C@H]4CC[C@@H](C(=O)NC(c5ccccc5)c5ccccc5)N4C(=O)[C@@H](NC(=O)[C@H](C)NC)C3)c2)CC[C@H]2CC[C@@H](C(=O)NC(c3ccccc3)c3ccccc3)N2C1=O | 1.09 µM | 17.9 µM | 15.6 µM | 29.7 µM | 11 µM | 27.2 µM | > 93.6 µM | > 100 µM | > 79.7 µM | > 100 µM | 12.2 µM | 25.2 µM | < 0.01 µM | 0.509 µM | 9.56 µM | 34.3 µM | 23.6 µM | > 100 µM | 6.93 µM | 29.2
